Test results taken from patent publication US20240409585A1, “MACROCYCLIC IMMUNOMODULATORS” (priority 2021, published 2024).
Bridge positions count the residues as written; N and C are the ends. Square brackets hold non-standard residues; d marks the D form. Peptide text beside a SMILES is read from it. * marks the point of attachment. ξ: configuration not given here. Phe(4-COOH) = N[C@@H](Cc1ccc(C(=O)O)cc1)C(=O)O; Bip = N[C@@H](Cc1ccc(-c2ccccc2)cc1)C(=O)O; Phe(4-CN) = N#Cc1ccc(C[C@H](N)C(=O)O)cc1; Phe(3-Me) = Cc1cccc(C[C@H](N)C(=O)O)c1; Bta = N[C@@H](Cc1csc2ccccc12)C(=O)O; Val(3-OH) = CC(C)(O)[C@H](N)C(=O)O; 3Pal = N[C@@H](Cc1cccnc1)C(=O)O; 4Pal = N[C@@H](Cc1ccncc1)C(=O)O; Cha = N[C@@H](CC1CCCCC1)C(=O)O; Cit = NC(=O)NCCC[C@H](N)C(=O)O; Thr(3ξ) = CC(O)[C@H](N)C(=O)O; Carboxymethyl = O=C(O)C*; NMeA = CN[C@@H](C)C(=O)O; Orn = NCCC[C@H](N)C(=O)O; Dab = NCC[C@H](N)C(=O)O; Dap = NC[C@H](N)C(=O)O; NH(CH2)5NH2 = NCCCCCN*; ξV = CC(C)C(N)C(=O)O

Biological target: T1, PE-labeled human PD-L1-Ig binding to Jurkat cell line over-expressing human PD-1 (Jurkat-PD-1) (Homo sapiens, UniProt Q15116)
T1 construct: expressed in transfected cells; host or cells: Jurkat
Assay: Jurkat-PD-1 Cell Binding High-Content Screening Assay (CBA): Method 1
Details: Jurkat-hPD-1 cells, PE-labeled PD-L1-Ig 20 nM final; read-out: Jurkat HPDL1 PD1 IC50 (uM) (Method 1)

T1 sequence (Q15116 25-288): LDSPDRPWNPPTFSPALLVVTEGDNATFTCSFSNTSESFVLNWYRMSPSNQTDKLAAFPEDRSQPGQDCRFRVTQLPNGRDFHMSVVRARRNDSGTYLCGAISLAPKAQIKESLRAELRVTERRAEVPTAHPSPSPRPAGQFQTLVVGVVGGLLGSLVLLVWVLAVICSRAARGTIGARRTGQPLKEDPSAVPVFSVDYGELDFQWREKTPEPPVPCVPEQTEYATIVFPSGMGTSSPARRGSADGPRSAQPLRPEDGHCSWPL

Compound | IC50 [µM]
CC[C@H](C)[C@@H]1NC(=O)[C@H](Cc2ccc(-c3ccccc3)cc2)NC(=O)[C@H](C(C)C)NC(=O)[C@H](Cc2c[nH]c3ccccc23)NC(=O)[C@H](CC(=O)O)NC(=O)[C@H](Cc2ccncc2)NC(=O)[C@H](CN)NC(=O)CSC[C@@H](C(=O)N[C@@H](C)C(N)=O)NC(=O)[C@H]([C@@H](C)O)NC(=O)[C@H](C(C)C)NC(=O)[C@H](CC(C)C)NC(=O)[C@H](CCN)NC(=O)[C@@H](CC(C)C)NC(=O)[C@H](C)N(C)C1=O [Compound 1405] ({CH2CO}-[Dap][4Pal]DWV[Bip]I[NMeA][dL][Dab]LVTCA-NH2; thioether N-14) | 0.03
CC(C)C[C@@H]1NC(=O)[C@H](Cc2c[nH]c3ccccc23)NC(=O)[C@H](CC(=O)O)NC(=O)[C@H](Cc2ccc(C(=O)O)cc2)NC(=O)[C@H](Cc2ccc(OCC(=O)O)cc2)NC(=O)CSC[C@@H](C(=O)N[C@@H](CC(N)=O)C(N)=O)NC(=O)[C@H](CO)NC(=O)[C@H](C(C)C)NC(=O)[C@H](CC2CCCCC2)NC(=O)[C@H](CCN)NC(=O)[C@@H](CC(C)C)NC(=O)[C@H](C)N(C)C(=O)[C@H](C(C)C)NC(=O)[C@H](Cc2ccc(-c3ccccc3)cc2)NC1=O [Compound 1911] ({CH2CO}-Y(Carboxymethyl)[Phe(4-COOH)]DWL[Bip]V[NMeA][dL][Dab][Cha]VSCN-NH2; thioether N-14) | 0.01
CC(C)C[C@@H]1NC(=O)[C@H](CCN)NC(=O)[C@@H](CC(C)C)NC(=O)[C@H](C)N(C)C(=O)[C@H](CCCNC(N)=O)NC(=O)[C@H](Cc2ccc(-c3ccccc3)cc2)NC(=O)[C@H](C(C)C)NC(=O)[C@H](Cc2c[nH]c3ccccc23)NC(=O)[C@H](CC(=O)O)NC(=O)[C@H](Cc2ccc(O)cc2)NC(=O)[C@H](Cc2ccc(OCC(=O)O)cc2)NC(=O)CSC[C@@H](C(=O)N[C@@H](C)C(N)=O)NC(=O)[C@H]([C@@H](C)O)NC(=O)[C@H](C(C)C)NC1=O [Compound 1324] ({CH2CO}-Y(Carboxymethyl)YDWV[Bip][Cit][NMeA][dL][Dab]LVTCA-NH2; thioether N-14) | 0.03
CC(C)C[C@@H]1NC(=O)[C@H](CCN)NC(=O)[C@@H](CC(C)C)NC(=O)[C@H](C)N(C)C(=O)[C@H](CCCNC(N)=O)NC(=O)[C@H](Cc2ccc(-c3ccccc3)cc2)NC(=O)[C@H](C(C)C)NC(=O)[C@H](Cc2c[nH]c3ccccc23)NC(=O)[C@H](CC(=O)O)NC(=O)[C@H](Cc2ccc(C#N)cc2)NC(=O)[C@H](CN)NC(=O)CSC[C@@H](C(=O)N[C@@H](C)C(N)=O)NC(=O)[C@H]([C@@H](C)O)NC(=O)[C@H](C(C)C)NC1=O [Compound 1408] ({CH2CO}-[Dap][Phe(4-CN)]DWV[Bip][Cit][NMeA][dL][Dab]LVTCA-NH2; thioether N-14) | 0.1
CC(C)C[C@@H]1NC(=O)[C@H](CCCN)NC(=O)[C@H](Cc2csc3ccccc23)NC(=O)[C@H](C)N(C)C(=O)[C@H](CCC(=O)O)NC(=O)[C@H](Cc2ccc(-c3ccccc3)cc2)NC(=O)[C@H](C(C)C)NC(=O)[C@H](Cc2c[nH]c3ccccc23)NC(=O)[C@H](CC(=O)O)NC(=O)[C@H](Cc2ccc(O)cc2)NC(=O)[C@H](Cc2ccccc2)NC(=O)CSC[C@@H](C(=O)N[C@@H](C)C(N)=O)NC(=O)[C@H]([C@@H](C)O)NC(=O)[C@H](C(C)C)NC1=O [Compound 1132] ({CH2CO}-FYDWV[Bip]E[NMeA][Bta][Orn]LVTCA-NH2; thioether N-14) | 0.16
CC(C)C[C@@H]1NC(=O)[C@H](Cc2c[nH]c3ccccc23)NC(=O)[C@H](CC(=O)O)NC(=O)[C@H](Cc2ccc(C(=O)O)cc2)NC(=O)[C@H](Cc2cnc[nH]2)NC(=O)CSC[C@@H](C(=O)N[C@@H](C)C(N)=O)NC(=O)[C@H](CO)NC(=O)[C@H](C(C)C)NC(=O)[C@H](CC(C)C)NC(=O)[C@H](CC(N)=O)NC(=O)[C@@H](C)NC(=O)[C@H](C)N(C)C(=O)[C@H](C(C)C)NC(=O)[C@H](Cc2ccc(-c3ccccc3)cc2)NC1=O [Compound 1760] ({CH2CO}-H[Phe(4-COOH)]DWL[Bip]V[NMeA][dA]NLVSCA-NH2; thioether N-14) | 0.03
Cc1cccc(C[C@@H]2NC(=O)[C@H](CC(=O)O)NC(=O)[C@H](Cc3cccnc3)NC(=O)[C@H](CN)NC(=O)CSC[C@@H](C(=O)N[C@@H](C)C(N)=O)NC(=O)[C@H](CO)NC(=O)[C@H](C(C)C)NC(=O)[C@H](CC(C)C)NC(=O)[C@H](CC(N)=O)NC(=O)[C@@H](C)NC(=O)[C@H](C)N(C)C(=O)[C@H](C(C)C)NC(=O)[C@H](Cc3ccc(-c4ccccc4)cc3)NC(=O)[C@H](CC(C)C)NC2=O)c1 [Compound 1584] ({CH2CO}-[Dap][3Pal]D[Phe(3-Me)]L[Bip]V[NMeA][dA]NLVSCA-NH2; thioether N-14) | 0.02
CC(C)C[C@@H]1NC(=O)[C@H](CC(N)=O)NC(=O)[C@@H](CC(C)C)NC(=O)[C@H](C)N(C)C(=O)[C@H](C(C)C)NC(=O)[C@H](Cc2ccc(-c3ccccc3)cc2)NC(=O)[C@H](CCN)NC(=O)[C@H](Cc2c[nH]c3ccccc23)NC(=O)[C@H](CC(=O)O)NC(=O)[C@H](Cc2ccc(O)cc2)NC(=O)[C@H](Cc2ccccc2)NC(=O)CSC[C@@H](C(=O)N[C@@H](C)C(N)=O)NC(=O)[C@H](CO)NC(=O)[C@H](C(C)C)NC1=O [Compound 2025] ({CH2CO}-FYDW[Dab][Bip]V[NMeA][dL]NLVSCA-NH2; thioether N-14) | 0.26
CC[C@H](C)[C@@H]1NC(=O)[C@H](Cc2ccc(-c3ccccc3)cc2)NC(=O)[C@H](C(C)C)NC(=O)[C@H](Cc2c[nH]c3ccccc23)NC(=O)[C@H](CC(=O)O)NC(=O)[C@H](Cc2ccc(OCC(=O)O)cc2)NC(=O)[C@H](Cc2ccc(OCC(=O)O)cc2)NC(=O)CSC[C@@H](C(=O)N[C@@H](C)C(N)=O)NC(=O)[C@H]([C@@H](C)O)NC(=O)[C@H](C(C)C)NC(=O)[C@H](CC(C)C)NC(=O)[C@H](CCN)NC(=O)[C@@H](CC(C)C)NC(=O)[C@H](C)N(C)C1=O [Compound 1568] ({CH2CO}-Y(Carboxymethyl)Y(Carboxymethyl)DWV[Bip]I[NMeA][dL][Dab]LVTCA-NH2; thioether N-14) | 0.01
CC(C)C[C@@H]1NC(=O)[C@H](Cc2c[nH]c3ccccc23)NC(=O)[C@H](CC(=O)O)NC(=O)[C@H](Cc2ccc(O)cc2)NC(=O)[C@H](Cc2ccccc2)NC(=O)CSC[C@@H](C(=O)N[C@@H](C)C(N)=O)NC(=O)[C@H]([C@@H](C)O)NC(=O)[C@H](C(C)C)NC(=O)[C@H](CC(C)C)NC(=O)[C@H](CC(N)=O)NC(=O)[C@@H](CC(C)C)NC(=O)[C@H](C)N(C)C(=O)[C@H](C(C)C)NC(=O)[C@H](Cc2ccc(-c3ccccc3)cc2)NC1=O [Compound 1467] ({CH2CO}-FYDWL[Bip]V[NMeA][dL]NLVTCA-NH2; thioether N-14) | 0.02
CC(C)C[C@@H]1NC(=O)[C@H](CC(N)=O)NC(=O)[C@@H](CC(C)C)NC(=O)[C@H](C)N(C)C(=O)[C@H](CCCNC(N)=O)NC(=O)[C@H](Cc2ccc(-c3ccccc3)cc2)NC(=O)[C@H](C(C)C)NC(=O)[C@H](Cc2c[nH]c3ccccc23)NC(=O)[C@H](CC(=O)O)NC(=O)[C@H](Cc2ccc(O)cc2)NC(=O)[C@H](Cc2ccccc2)NC(=O)CSC[C@@H](C(=O)N[C@@H](C)C(N)=O)NC(=O)[C@H](C(C)O)NC(=O)[C@H](C(C)C)NC1=O (stereo partly drawn) [Compound 2031] ({CH2CO}-FYDWV[Bip][Cit][NMeA][dL]NLV[Thr(3ξ)]CA-NH2; thioether N-14) | 0.07
Cc1cccc(C[C@@H]2NC(=O)[C@H](CC(=O)O)NC(=O)[C@H](Cc3ccc(OCC(=O)O)cc3)NC(=O)[C@H](Cc3ccncc3)NC(=O)CSC[C@@H](C(=O)N[C@H](C)C(N)=O)NC(=O)[C@H](CO)NC(=O)[C@H](C(C)(C)O)NC(=O)[C@H](CC3CCCCC3)NC(=O)[C@H](CCN)NC(=O)[C@@H](CC(C)C)NC(=O)[C@H](C)N(C)C(=O)[C@H](Cc3ccc(OCC(=O)O)cc3)NC(=O)[C@H](Cc3ccc(-c4ccccc4)cc3)NC(=O)[C@H](Cc3ccc(C(=O)O)cc3)NC2=O)c1 [Compound 2183] ({CH2CO}-[4Pal]Y(Carboxymethyl)D[Phe(3-Me)][Phe(4-COOH)][Bip]Y(Carboxymethyl)[NMeA][dL][Dab][Cha][Val(3-OH)]SC[dA]-NH2; thioether N-14) | 0.11
CC(C)C[C@H]1NC(=O)[C@H](C)N(C)C(=O)[C@H](Cc2ccc(C(=O)O)cc2)NC(=O)[C@H](Cc2ccc(-c3ccccc3)cc2)NC(=O)[C@H](CCC(N)=O)NC(=O)[C@H](Cc2c[nH]c3ccccc23)NC(=O)[C@H](CC(=O)O)NC(=O)[C@H](Cc2ccc(OCC(=O)O)cc2)NC(=O)[C@H](Cc2ccc(OCC(=O)O)cc2)NC(=O)CSC[C@@H](C(=O)N[C@@H](CO)C(N)=O)NC(=O)[C@H](CCC(=O)O)NC(=O)[C@H](C(C)(C)O)NC(=O)[C@H](CC2CCCCC2)NC(=O)[C@H](CCN)NC1=O [Compound 2198] ({CH2CO}-Y(Carboxymethyl)Y(Carboxymethyl)DWQ[Bip][Phe(4-COOH)][NMeA][dL][Dab][Cha][Val(3-OH)]ECS-NH2; thioether N-14) | 0.11
CC(C)C[C@@H]1NC(=O)[C@H](CCN)NC(=O)[C@@H](CC(C)C)NC(=O)[C@H](C)N(C)C(=O)[C@H](CCCNC(=N)N)NC(=O)[C@H](Cc2ccc(-c3ccccc3)cc2)NC(=O)[C@H](C(C)C)NC(=O)[C@H](Cc2c[nH]c3ccccc23)NC(=O)[C@H](CC(=O)O)NC(=O)[C@H](Cc2ccc(O)cc2)NC(=O)[C@H](CCCNC(=N)N)NC(=O)CSC[C@@H](C(=O)N[C@@H](C)C(N)=O)NC(=O)[C@H]([C@@H](C)O)NC(=O)[C@H](C(C)C)NC1=O [Compound 1343] ({CH2CO}-RYDWV[Bip]R[NMeA][dL][Dab]LVTCA-NH2; thioether N-14) | 0.04
CC(C)C[C@H]1NC(=O)[C@H](C)N(C)C(=O)[C@H](C(C)C)NC(=O)[C@H](Cc2ccc(-c3ccccc3)cc2)NC(=O)[C@H](C(C)C)NC(=O)[C@H](Cc2c[nH]c3ccccc23)NC(=O)[C@H](CC(N)=O)NC(=O)[C@H](Cc2ccc(OCC(=O)O)cc2)NC(=O)[C@H](Cc2ccccc2)NC(=O)CSC[C@@H](C(=O)N[C@@H](C)C(=O)NCCCCCN)NC(=O)[C@H](CO)NC(=O)C(C(C)C)NC(=O)[C@H](CC2CCCCC2)NC(=O)[C@H](CC(N)=O)NC1=O (stereo partly drawn) [Compound 2240] ({CH2CO}-FY(Carboxymethyl)NWV[Bip]V[NMeA][dL]N[Cha][ξV]SCA-{NH(CH2)5NH2}; thioether N-14) | 0.04
